e = 2'-O-(2-methoxyethyl) (MOE); d = 2'-deoxy (DNA)
Columns and labels:
human SGLT2 = target: T1, human SGLT2 (Homo sapiens, UniProt P31639); conditions: cited from earlier work
T1 construct: host or cells: Xenopus oocytes (heterologous expression after injection)
T1 sequence (P31639 1-672): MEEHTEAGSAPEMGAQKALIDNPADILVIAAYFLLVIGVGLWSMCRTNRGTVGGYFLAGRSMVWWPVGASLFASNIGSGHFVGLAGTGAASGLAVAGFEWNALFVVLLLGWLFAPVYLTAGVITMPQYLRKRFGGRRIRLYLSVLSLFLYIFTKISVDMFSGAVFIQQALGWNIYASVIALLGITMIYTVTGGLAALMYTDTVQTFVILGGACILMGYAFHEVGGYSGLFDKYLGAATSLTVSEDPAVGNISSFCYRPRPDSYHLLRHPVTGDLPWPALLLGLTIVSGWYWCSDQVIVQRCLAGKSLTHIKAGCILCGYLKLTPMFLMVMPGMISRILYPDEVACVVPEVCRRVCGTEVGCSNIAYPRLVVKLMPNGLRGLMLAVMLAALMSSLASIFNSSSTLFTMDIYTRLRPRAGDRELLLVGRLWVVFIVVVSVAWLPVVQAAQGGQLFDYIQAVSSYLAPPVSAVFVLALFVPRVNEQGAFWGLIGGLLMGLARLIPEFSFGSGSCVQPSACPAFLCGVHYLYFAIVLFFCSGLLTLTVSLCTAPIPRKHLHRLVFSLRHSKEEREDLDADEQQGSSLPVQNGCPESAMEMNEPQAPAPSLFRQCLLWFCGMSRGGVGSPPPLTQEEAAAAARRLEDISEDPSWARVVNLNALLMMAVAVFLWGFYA

SGLT-2 mRNA [1] = test: SGLT-2 mRNA levels in kidney of ZDF rats, parent versus 12 nucleobase compound (Example 10); assay type: in vivo, rat
Description: In a next study, ZDF rats were dosed intraperitoneally twice per week with 1.5 mg/kg of either ISIS 257016 or ISIS 370717, or with saline at a similar dosing schedule. ISIS 370717 is a 12 nucleobase antisense compound targeted to SGLT-2 nucleic acid comprising the sequence […] […] All cytidine residues are 5-methylcytidines.
The date support that ISIS 257016 is a prodrug having a 12 nucleotide pharmacophore.

SGLT-2 mRNA [2] = test: SGLT-2 mRNA levels in kidney of normal rats after intrajejunal administration (Example 11); assay type: in vivo, rat; conditions: 100 mg/kg twice per week intrajejunal
mouse SGLT2 mRNA [3] = test: Mouse SGLT2 mRNA levels in kidney, wing, gap and length variations (Example 12, Table 61); assay type: in vivo; conditions: mice
Description: ISIS 370717 1-10-1 MOE gapmer was used as a template to make sequence related oligos with varying motifs. The antisense compounds were designed to target different regions of the mouse or rat SGLT2 nucleic acid, using published sequences (GenBank accession number U29881.1, incorporated herein as SEQ ID NO: 1575, and GenBank accession number AJ292928.1, incorporated herein as SEQ ID NO: 1576, respectively).
The antisense compounds were analyzed for their effect on mouse SGLT2 mRNA levels. Data are ranges taken from three experiments in which mice were dosed twice per week for three weeks with 2.5, 0.5 or 0.1 umol/kg of the above MOE gapmers given by intraperitoneal injection. Mice were sacrificed 48 hours following last administration and evaluated for SGLT2 levels in kidney. SGLT2 mRNA levels were determined by RT, real-time PCR as described by other examples herein. PCR results were normalized to an internal ISIS control.

rat SGLT2 mRNA [4] = test: Rat SGLT2 mRNA levels in kidney, 1-10-1 and 1-10-2 MOE gapmers, Sprague-Dawley rats (Example 13, Table 63); assay type: in vivo
Description: 1-10-1 and 1-10-2 MOE gapmer antisense compounds, provided in Table 62, were designed to target different regions of the mouse or rat SGLT2 RNA. All short antisense compounds in Table 62 are chimeric oligonucleotides (“gapmers”) either 12 or 13 nucleotides in length, composed of a central “gap” segment consisting of ten 2′-deoxynucleotides, which are flanked on the 5′ side by a one-nucleoside “wing” and on the 3′ side by a two or one-nucleotide “wing”. […] All cytidine residues are 5-methylcytidines.
The short antisense compounds were analyzed for their effect on rat SGLT2 mRNA levels. Data are ranges taken from three experiments in which Male Sprague-Dawley rats (170-200 g) were dosed twice per week for three weeks with 450, 150 or 50 nmol/kg of either a 1-10-1 or 1-10-2 MOE gapmer given by intraperitoneal injection. Rats were sacrificed 48 hours following last administration and evaluated for SGLT2 mRNA levels in kidney. Target levels were determined by RT, real-time PCR as described by other examples herein. PCR results were normalized to an internal ISIS control.

mouse SGLT2 mRNA [5] = test: Mouse SGLT2 mRNA levels in kidney, 1-10-1 MOE gapmers, Balb/c mice (Example 14, Table 65); assay type: in vivo
Description: The short antisense compounds were analyzed for their effect on mouse SGLT2 mRNA levels. Data was taken from three experiments in which Male 6-week old Balb/c mice were dosed twice per week for two weeks with 450, 150, or 50 nmol/kg of one of the above 1-10-1 MOE gapmers given by intraperitoneal injection. Mice were sacrificed 48 hours following last administration and evaluated for SGLT2 mRNA levels in kidney. Target levels were determined by RT, real-time PCR as described by other examples herein. PCR results were normalized to an internal ISIS control.

rat SGLT2 mRNA [6] = test: Rat SGLT2 mRNA levels in kidney, 1-10-1 gapmers at 250 nmol/kg, Sprague-Dawley rats (Example 14, Table 66); assay type: in vivo; conditions: 250 nmol/kg i.p. twice per week for three weeks; Sprague-Dawley rats; kidney
Description: The effect of the above 1-10-1gapmers (see Table 64 above) on rat SGLT2 mRNA levels. Data are taken from four experiments in which male Sprague-Dawley rats (170-200 g) were dosed twice per week for three weeks with 250 nmol/kg given by intraperitoneal injection. Rats were sacrificed 48 hours following last administration and evaluated for SGLT2 mRNA levels in kidney. Target levels were determined by RT, real-time PCR as described by other examples herein. PCR results were normalized to an internal ISIS control.

Compound: O=C(CCc1ccc(O)cc1)c1c(O)cc(O)cc1O[C@@H]1O[C@H](CO)[C@@H](O)[C@H](O)[C@H]1O [phlorizin]
- transport activity (human SGLT2; You et al., 1995): suppressed

Compound: ISIS 370717: SGLT2; TAGCCACCAACT 1-10-1 MOE gapmer, phosphorothioate (sugars from the 5' end e1 d10 e1, all phosphorothioate, methylation of C not given here)
- pharmacological activity (SGLT-2 mRNA [1]; ZDF rats, 1.5 mg/kg i.p. twice per week, five weeks): similar
- onset of action (SGLT-2 mRNA [1]; compared with ISIS 257016): faster onset of action
- inhibition of SGLT2 expression in kidney (SGLT-2 mRNA [1]; day two after a single dose of 2.8 umoles/kg): ~80%
- SGLT-2 mRNA reduced over the controls (SGLT-2 mRNA [2]): more than 80%
- % change in SGLT2 expression relative to saline (mouse SGLT2 mRNA [3]; 0.1 umol/kg i.p. twice per week for three weeks): −55%
- % change in SGLT2 expression relative to saline (mouse SGLT2 mRNA [3]; 0.5 umol/kg i.p. twice per week for three weeks): −70%
- % change in SGLT2 expression relative to saline (rat SGLT2 mRNA [4]; 50 nmol/kg i.p. twice per week for three weeks): −55%
- % change in SGLT2 expression relative to saline (rat SGLT2 mRNA [4]; 150 nmol/kg i.p. twice per week for three weeks): −70%
- % change in SGLT2 expression relative to saline (rat SGLT2 mRNA [4]; 450 nmol/kg i.p. twice per week for three weeks): −70%
- % change in SGLT2 expression relative to saline (mouse SGLT2 mRNA [5]; 50 nmol/kg i.p. twice per week for two weeks): −47.5%
- % change in SGLT2 expression relative to saline (mouse SGLT2 mRNA [5]; 150 nmol/kg i.p. twice per week for two weeks): −55%
- % change in SGLT2 expression relative to saline (mouse SGLT2 mRNA [5]; 450 nmol/kg i.p. twice per week for two weeks): −65%
- % change in SGLT2 expression relative to saline (rat SGLT2 mRNA [6]): −70%

Compound: CO[C@H]1O[C@H](CO)[C@@H](O)[C@H](O)[C@H]1O [α-MeG1c, α-methyl-D-glucopyranoside]
- Km (human SGLT2; sodium-dependent transport (Kanai et al., 1994; You et al., 1995)): 1600 µM
